pIC50: −log10 of the molar value. Values joined by “and” are separate entries in the source; they are usually repeats but may differ in a detail not shown here. Equal values may be shown once. Read-outs that look alike come from different tables or passages of the source.
What was measured:
[1] = tested on: L-6 cells; assay: Cytotoxicity, same Alamar Blue assay with L-6 cells; format: cell-based; details: Rattus norvegicus
Description: Serial drug dilutions are added to the wells. Then 50 µl of trypanosome suspension (T. b. rhodesiense STIB 900) is added to each well and the plate incubated at 37°C under a 5% CO2 atmosphere for 72 hours. Alamar Blue (10 µl) is then added to each well and incubation continued for a further 2-4 hours. […] Fluorescence development is expressed as percentage of the control, and IC50 values determined. Cytotoxicity is assessed using the same assay and L-6 cells.

[2] = tested on: K1 strain of P. falciparum (resistant to chloroquine and pyrimethamine); assay: in vitro screening against Plasmodium falciparum, [3H]-hypoxanthine incorporation assay; format: cell-based; details: read-out: IC50 P.falc.
Description: Antiplasmodial activity is determined using the K1 strain of P. falciparum (resistant to chloroquine and pyrimethamine). A modification of the [^3H]-hypoxanthine incorporation assay is used [Matile H, Pink JRL. in: Lefkovits I. and Pernis B. (Eds.). Immunological Methods, Academic Press, San Diego, 1990, 221-234.]. Briefly, infected human red blood cells in RPMI 1640 medium with 5% Albumax are exposed to serial drug dilutions in microtiter plates for 48 hours. Viability is assessed by measuring the incorporation of [^3H]-hypoxanthine by liquid scintillation counting 24 hours after the addition of the radiolabel. The counts are expressed as percentage of the control cultures, sigmoidal inhibition curves are drawn and IC50 values calculated.

[3] = tested on: T. b. rhodesiense STIB 900; assay: in vitro screening against Trypanosoma brucei rhodesiense, Alamar Blue assay; format: cell-based; details: read-out: IC50 T.rho.
Description: Minimum Essential Medium (50 µl) supplemented according to Baltz et al. [Baltz T, Baltz D, Giroud C, Crockett J. EMBO J., 1985, 4: 1273-1277] with 2-mercaptoethanol and 15% heat-inactivated horse serum is added to each well of a 96-well microtiter plate. Serial drug dilutions are added to the wells. Then 50 µl of trypanosome suspension (T. b. rhodesiense STIB 900) is added to each well and the plate incubated at 37°C under a 5% CO2 atmosphere for 72 hours. Alamar Blue (10 µl) is then added to each well and incubation continued for a further 2-4 hours. The plate is then read with a Millipore Cytofluor 2300 using an excitation wavelength of 530 nm and emission wavelength of 590 nm [Räz B, Iten M, Grether-Bühler Y, Kaminsky R, Brun R. Acta Trop., 1997, 68: 139-147]. Fluorescence development is expressed as percentage of the control, and IC50 values determined. Cytotoxicity is assessed using the same assay and L-6 cells.

[4] = tested on: P. berghei ANKA strain; assay: in vivo screening against Plasmodium berghei in mice; details: for MSD P. berghei: mean survival day; for Activity %: percent reduction of parasitemia vs control
Description: • Method of infection of animals: • Male mice (Fü albino; specific pathogen free) weighing 20± 2g are infected intravenously with 2x10^7 P. berghei ANKA strain-infected erythrocytes from donor mice on day 0 of the experiment. […] Parasitemia is determined microscopically by counting 1000 red blood cells. • For low parasitemias (<1%) 2000 rbc's have to be counted. The difference between the mean value for the control group (taken as 100%) and that for each experimental group is calculated and expressed as percent reduction (=activity). • The mean survival day (MSD, in days) is recorded as well as observations concerning side effects of the drug.

[5] = L6, L-6 cells, read-out: IC50 Cytox
[6] = Erythrocyte, K1 strain, infected human red blood cells, 48 hours drug exposure

`C[C@@H]1CC[C@H]2[C@@H](C)C(=O)O[C@@H]3O[C@@]4(C)CC[C@@H]1[C@]32OO4` [Artemisinin] gave a pIC50 [1, 5] of 3.35 and a pIC50 [2, 6] of 8.19.
`N=C(N)c1ccc(OCCCCCOc2ccc(C(=N)N)cc2)cc1` [Pentamidine] was tested, and the pIC50 ([3]; STIB 900, 72 hours incubation) was 8.12 and the pIC50 [1, 5] was 2.33.
With `c1ccc([C@@H]2CC3(N4CCCC4)CNCC2[C@H](c2ccccc2)C3)cc1` (racemic) [Example 1, (6RS,9RS)-(±)-6,9-Diphenyl-1-pyrrolidino-3-azabicyclo[3.2.2]nonane] the pIC50 ([3]; STIB 900, 72 hours incubation) was 6.00, the pIC50 [1, 5] was 4.14 and the “MSD P. berghei” value ([4]; ip 4x10mg/kg) was 4 days. The Activity % ([4]; ip 4x10mg/kg) was 25.06%, the “MSD P. berghei” value ([4]; ip 4x20mg/kg) was 10 days and the Activity % ([4]; ip 4x20mg/kg) was 60.11%. The “MSD P. berghei” value ([4]; ip 4x50mg/kg) was 12.3 days and 15 days, the Activity % ([4]; ip 4x50mg/kg) was 94.32% and 94.77% and the “MSD P. berghei” value ([4]; po 1x100mg/kg) was 12 days. For the same compound, the Activity % ([4]; po 1x100mg/kg) was 70.52%, the “side effects of the drug” value ([4]; po 1x200mg/kg) was “toxic” and the “MSD P. berghei” value ([4]; po 1x200mg/kg) was 16 days. The Activity % ([4]; po 1x200mg/kg) was 66.13%, the “MSD P. berghei” value ([4]; po 4x100mg/kg) was 18.6 days and the Activity % ([4]; po 4x100mg/kg) was 97.7%. For the same compound, the pIC50 [2, 6] was 7.02.
For `CCN(CC)CCCC(C)Nc1ccnc2cc(Cl)ccc12` (stereo not shown) [Chloroquine, reference compound], the pIC50 ([1]; L6, read-out: IC50 Cytox) was 3.72, the “MSD P. berghei” value ([4]; ip 4x10mg/kg) was 20 days and the Activity % ([4]; ip 4x10mg/kg) was 99.6%. The “MSD P. berghei” value ([4]; po 4x10mg/kg) was 20 days, the Activity % ([4]; po 4x10mg/kg) was 99.6% and the pIC50 ([2]; K1, Erythrocyte, 48 h) was 6.92.
With `Nc1nc(N)nc(Nc2ccc([As]3SCC(CO)S3)cc2)n1` (stereo not shown) [Melarsoprol] the pIC50 ([3]; 72 h) was 8.41 and the pIC50 ([1]; L6, read-out: IC50 Cytox) was 5.11.
